Results published in the kinase profiling compilation of Christmann-Franck et al. (2016).

Experiments:
Test in all cases: radiometric filter-binding kinase assay, Kinase HotSpot
Settings in all cases: compound 0.5 µM; ATP 10 µM
CDC42BPA (human) = CDC42BPA (human) (UniProt Q5VT25)
AURKC (human) = AURKC (human) (UniProt Q9UQB9)
CSNK1D (human) = CSNK1D (human) (UniProt P48730)
FLT3 (human) = FLT3 (human) (UniProt P36888)
PIM3 (human) = PIM3 (human) (UniProt Q86V86)
MUSK (human) = MUSK (human) (UniProt O15146)
MARK3 (human) = MARK3 (human) (UniProt P27448)
CAMK2A (human) = CAMK2A (human) (UniProt Q9UQM7)
TGFBR1 (human) = TGFBR1 (human) (UniProt P36897)
AURKA (human) = AURKA (human) (UniProt O14965)
ULK2 (human) = ULK2 (human) (UniProt Q8IYT8)
STK10 (human) = STK10 (human) (UniProt O94804)
MATK (human) = MATK (human) (UniProt P42679)
LRRK2 (human) = LRRK2 (human) (UniProt Q5S007)
PAK7 (human) = PAK7 (human) (UniProt Q9P286)
EPHB2 (human) = EPHB2 (human) (UniProt P29323)
NUAK1 (human) = NUAK1 (human) (UniProt O60285)
MAP3K3 (human) = MAP3K3 (human) (UniProt Q99759)
STK17A (human) = STK17A (human) (UniProt Q9UEE5)
LIMK1 (human) = LIMK1 (human) (UniProt P53667)
DSTYK (human) = DSTYK (human) (UniProt Q6XUX3)
ITK (human) = ITK (human) (UniProt Q08881)
GSG2 (human) = GSG2 (human) (UniProt Q8TF76)
MAP3K9 (human) = MAP3K9 (human) (UniProt P80192)
EPHB1 (human) = EPHB1 (human) (UniProt P54762)
MAPK8 (human) = MAPK8 (human) (UniProt P45983)
CDK4 CCND3 (human) = CDK4 CCND3 (human) (UniProt P30281+P11802)
MARK1 (human) = MARK1 (human) (UniProt Q9P0L2)
PAK6 (human) = PAK6 (human) (UniProt Q9NQU5)
INSR (human) = INSR (human) (UniProt P06213)
HIPK4 (human) = HIPK4 (human) (UniProt Q8NE63)
MAP3K8 (human) = MAP3K8 (human) (UniProt P41279)
JAK3 JH1 JH2 (human) = JAK3 JH1 JH2 (human) (UniProt P52333)
PKN1 (human) = PKN1 (human) (UniProt Q16512)
SGK3 (human) = SGK3 (human) (UniProt Q96BR1)
MELK (human) = MELK (human) (UniProt Q14680)
CDK5 CDK5R1 p25 (human) = CDK5 CDK5R1 p25 (human) (UniProt Q00535+Q15078)
BRAF (human) = BRAF (human) (UniProt P15056)
CSNK1G3 (human) = CSNK1G3 (human) (UniProt Q9Y6M4)
CDK2 CCNE1 (human) = CDK2 CCNE1 (human) (UniProt P24941+P24864)
CSK (human) = CSK (human) (UniProt P41240)

Sequence of CDK2 CCNE1 (human) (P24864 whole entry, looked up, other chains not shown): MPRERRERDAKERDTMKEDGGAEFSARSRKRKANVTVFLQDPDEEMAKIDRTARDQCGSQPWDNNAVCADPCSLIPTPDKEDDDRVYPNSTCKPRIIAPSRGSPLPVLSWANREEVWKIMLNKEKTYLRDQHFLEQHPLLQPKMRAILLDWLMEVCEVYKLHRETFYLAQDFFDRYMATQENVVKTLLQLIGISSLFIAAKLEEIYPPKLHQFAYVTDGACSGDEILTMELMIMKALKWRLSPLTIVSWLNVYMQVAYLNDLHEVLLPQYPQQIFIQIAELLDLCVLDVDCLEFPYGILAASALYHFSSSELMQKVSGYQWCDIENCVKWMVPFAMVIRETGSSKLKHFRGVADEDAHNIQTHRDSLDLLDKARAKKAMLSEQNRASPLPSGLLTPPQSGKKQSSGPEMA
Sequence of MARK3 (human) (P27448 whole entry, looked up): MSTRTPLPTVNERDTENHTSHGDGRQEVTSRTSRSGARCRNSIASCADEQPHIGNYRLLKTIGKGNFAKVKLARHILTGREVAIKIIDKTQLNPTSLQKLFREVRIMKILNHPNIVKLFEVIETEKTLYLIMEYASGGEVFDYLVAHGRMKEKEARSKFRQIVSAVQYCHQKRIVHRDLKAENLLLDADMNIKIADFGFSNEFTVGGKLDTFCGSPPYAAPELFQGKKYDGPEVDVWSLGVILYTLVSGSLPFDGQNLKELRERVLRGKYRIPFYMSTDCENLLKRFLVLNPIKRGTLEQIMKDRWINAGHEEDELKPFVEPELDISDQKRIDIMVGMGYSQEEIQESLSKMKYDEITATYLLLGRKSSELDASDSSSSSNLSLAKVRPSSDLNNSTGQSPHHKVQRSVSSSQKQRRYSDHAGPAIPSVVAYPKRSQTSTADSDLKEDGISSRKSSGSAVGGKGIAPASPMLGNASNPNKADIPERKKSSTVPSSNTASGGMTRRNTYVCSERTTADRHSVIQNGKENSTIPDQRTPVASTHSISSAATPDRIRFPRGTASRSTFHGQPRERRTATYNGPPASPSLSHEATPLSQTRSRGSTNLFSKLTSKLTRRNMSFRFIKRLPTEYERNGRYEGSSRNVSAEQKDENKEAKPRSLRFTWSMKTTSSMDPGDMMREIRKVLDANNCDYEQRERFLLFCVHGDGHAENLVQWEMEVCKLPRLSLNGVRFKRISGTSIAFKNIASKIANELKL
Sequence of BRAF (human) (P15056 whole entry, looked up): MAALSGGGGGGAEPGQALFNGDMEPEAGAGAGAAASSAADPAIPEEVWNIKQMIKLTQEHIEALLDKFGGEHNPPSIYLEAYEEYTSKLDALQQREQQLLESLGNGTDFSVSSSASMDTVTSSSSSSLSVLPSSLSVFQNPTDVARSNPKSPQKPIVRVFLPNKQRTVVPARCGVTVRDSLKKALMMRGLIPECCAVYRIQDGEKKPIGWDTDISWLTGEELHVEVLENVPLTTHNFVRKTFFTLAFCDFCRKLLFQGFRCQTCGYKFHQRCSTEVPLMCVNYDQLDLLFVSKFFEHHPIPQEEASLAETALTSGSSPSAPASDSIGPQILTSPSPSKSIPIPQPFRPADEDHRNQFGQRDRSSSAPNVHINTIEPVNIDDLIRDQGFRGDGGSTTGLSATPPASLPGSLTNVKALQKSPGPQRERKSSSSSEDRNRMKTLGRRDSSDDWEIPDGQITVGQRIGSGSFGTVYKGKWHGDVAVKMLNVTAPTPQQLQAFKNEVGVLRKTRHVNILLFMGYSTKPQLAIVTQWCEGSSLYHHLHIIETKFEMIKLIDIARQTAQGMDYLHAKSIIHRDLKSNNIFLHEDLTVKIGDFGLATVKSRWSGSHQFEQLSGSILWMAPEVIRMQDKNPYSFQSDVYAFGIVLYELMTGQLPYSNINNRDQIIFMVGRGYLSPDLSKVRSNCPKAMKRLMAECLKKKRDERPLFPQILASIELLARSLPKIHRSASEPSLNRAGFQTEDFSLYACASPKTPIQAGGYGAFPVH
Sequence of MUSK (human) (O15146 whole entry, looked up): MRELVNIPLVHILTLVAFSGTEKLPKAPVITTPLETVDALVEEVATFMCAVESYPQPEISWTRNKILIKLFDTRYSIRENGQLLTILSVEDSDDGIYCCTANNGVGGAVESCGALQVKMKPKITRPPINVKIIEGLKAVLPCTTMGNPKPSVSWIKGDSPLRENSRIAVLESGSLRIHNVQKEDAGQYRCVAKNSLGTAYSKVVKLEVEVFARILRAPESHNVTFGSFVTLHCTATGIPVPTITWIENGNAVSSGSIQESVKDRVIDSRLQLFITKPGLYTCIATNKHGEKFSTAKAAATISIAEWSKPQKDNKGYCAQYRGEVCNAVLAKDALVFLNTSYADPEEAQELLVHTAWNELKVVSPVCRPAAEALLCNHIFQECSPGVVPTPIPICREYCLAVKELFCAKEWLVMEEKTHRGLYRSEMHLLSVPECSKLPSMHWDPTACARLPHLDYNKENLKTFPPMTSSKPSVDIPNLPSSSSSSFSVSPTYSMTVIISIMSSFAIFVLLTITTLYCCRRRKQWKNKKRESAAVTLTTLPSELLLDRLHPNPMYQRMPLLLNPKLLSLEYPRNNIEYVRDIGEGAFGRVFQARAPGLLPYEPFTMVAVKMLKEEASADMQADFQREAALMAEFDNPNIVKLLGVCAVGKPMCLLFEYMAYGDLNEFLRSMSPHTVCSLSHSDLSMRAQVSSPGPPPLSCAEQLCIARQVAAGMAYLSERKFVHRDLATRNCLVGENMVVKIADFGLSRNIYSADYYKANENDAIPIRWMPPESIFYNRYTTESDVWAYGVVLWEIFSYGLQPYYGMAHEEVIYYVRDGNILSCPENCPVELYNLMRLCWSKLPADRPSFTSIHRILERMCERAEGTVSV
Sequence of MAP3K3 (human) (Q99759 whole entry, looked up): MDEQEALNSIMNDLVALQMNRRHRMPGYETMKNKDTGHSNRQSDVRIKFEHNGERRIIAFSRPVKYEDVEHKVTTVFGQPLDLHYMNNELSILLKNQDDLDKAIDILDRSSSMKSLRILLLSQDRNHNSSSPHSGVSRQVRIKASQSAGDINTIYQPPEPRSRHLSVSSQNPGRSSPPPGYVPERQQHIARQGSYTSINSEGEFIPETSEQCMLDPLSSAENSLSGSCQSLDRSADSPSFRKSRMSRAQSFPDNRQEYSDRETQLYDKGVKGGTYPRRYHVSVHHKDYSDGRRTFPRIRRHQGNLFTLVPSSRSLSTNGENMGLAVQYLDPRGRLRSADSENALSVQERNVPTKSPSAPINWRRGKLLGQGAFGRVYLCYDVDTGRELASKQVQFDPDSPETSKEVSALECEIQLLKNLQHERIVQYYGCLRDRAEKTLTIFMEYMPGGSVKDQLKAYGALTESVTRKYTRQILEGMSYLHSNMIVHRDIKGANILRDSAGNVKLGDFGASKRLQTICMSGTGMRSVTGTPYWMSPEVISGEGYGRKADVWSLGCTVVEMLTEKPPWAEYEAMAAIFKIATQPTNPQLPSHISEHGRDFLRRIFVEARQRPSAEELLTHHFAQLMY
Sequence of EPHB2 (human) (P29323 whole entry, looked up): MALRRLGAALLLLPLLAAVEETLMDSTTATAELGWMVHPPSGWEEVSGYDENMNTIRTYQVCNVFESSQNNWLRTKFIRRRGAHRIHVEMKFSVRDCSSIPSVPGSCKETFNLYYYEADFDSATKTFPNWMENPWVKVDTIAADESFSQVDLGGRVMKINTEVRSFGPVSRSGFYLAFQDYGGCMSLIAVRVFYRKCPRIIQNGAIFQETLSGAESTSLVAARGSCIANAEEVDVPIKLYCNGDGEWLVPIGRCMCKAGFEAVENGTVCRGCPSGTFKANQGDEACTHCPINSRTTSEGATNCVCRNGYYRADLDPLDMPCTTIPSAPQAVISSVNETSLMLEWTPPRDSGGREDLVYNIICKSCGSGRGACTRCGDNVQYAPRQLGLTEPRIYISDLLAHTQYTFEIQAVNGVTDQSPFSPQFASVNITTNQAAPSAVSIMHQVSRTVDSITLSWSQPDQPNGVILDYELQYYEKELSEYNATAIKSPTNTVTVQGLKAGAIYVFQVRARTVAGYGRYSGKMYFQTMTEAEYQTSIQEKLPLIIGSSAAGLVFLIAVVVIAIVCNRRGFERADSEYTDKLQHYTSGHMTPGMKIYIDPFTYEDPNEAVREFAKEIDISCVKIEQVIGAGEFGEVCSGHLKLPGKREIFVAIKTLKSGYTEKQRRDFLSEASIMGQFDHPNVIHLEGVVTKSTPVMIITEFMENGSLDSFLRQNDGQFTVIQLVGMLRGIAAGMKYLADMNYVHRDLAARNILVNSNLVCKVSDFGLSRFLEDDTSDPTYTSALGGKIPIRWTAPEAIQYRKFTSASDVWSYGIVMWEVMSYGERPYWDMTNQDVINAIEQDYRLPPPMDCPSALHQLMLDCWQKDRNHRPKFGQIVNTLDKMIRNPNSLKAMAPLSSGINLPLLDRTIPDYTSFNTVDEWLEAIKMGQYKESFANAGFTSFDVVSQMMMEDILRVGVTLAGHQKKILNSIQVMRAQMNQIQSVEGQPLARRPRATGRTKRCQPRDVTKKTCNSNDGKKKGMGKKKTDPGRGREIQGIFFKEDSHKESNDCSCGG
Sequence of MATK (human) (P42679 whole entry, looked up): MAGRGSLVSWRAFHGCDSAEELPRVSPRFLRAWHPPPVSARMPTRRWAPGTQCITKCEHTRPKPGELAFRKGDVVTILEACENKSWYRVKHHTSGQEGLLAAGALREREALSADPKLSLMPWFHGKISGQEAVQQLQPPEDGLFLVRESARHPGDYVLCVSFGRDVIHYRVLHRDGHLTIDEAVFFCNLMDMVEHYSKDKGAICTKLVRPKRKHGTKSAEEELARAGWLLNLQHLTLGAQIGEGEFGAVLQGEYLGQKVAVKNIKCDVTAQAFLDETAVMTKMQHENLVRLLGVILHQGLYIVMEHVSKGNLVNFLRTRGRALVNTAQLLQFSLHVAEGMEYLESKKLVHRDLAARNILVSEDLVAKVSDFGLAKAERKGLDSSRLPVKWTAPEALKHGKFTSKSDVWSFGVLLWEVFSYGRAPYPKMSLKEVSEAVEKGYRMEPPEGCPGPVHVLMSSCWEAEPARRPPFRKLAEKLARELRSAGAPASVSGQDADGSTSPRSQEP

SMILES | residual activity (AURKC (human)) | residual activity (CSNK1D (human)) | residual activity (FLT3 (human)) | residual activity (PIM3 (human)) | residual activity (MUSK (human)) | residual activity (MARK3 (human)) | residual activity (CAMK2A (human)) | residual activity (AURKA (human)) | residual activity (ULK2 (human)) | residual activity (STK10 (human)) | residual activity (MATK (human)) | residual activity (LRRK2 (human)) | residual activity (PAK7 (human)) | residual activity (EPHB2 (human)) | residual activity (NUAK1 (human)) | residual activity (MAP3K3 (human)) | residual activity (STK17A (human)) | residual activity (LIMK1 (human)) | residual activity (DSTYK (human)) | residual activity (ITK (human)) | other results
COc1ccc(COc2ccc(Cc3cnc(N)nc3N)cc2OC)cc1 | 97.5% | 98.5% | 103% | 95.9% | 102% | 103% | 105% | 105% | 105% | 100% | 94.8% | 92.6% | 103% | 87.4% | 106% | 97.8% | 102% | 94.5% | 95% | 98.1% | residual activity (CDC42BPA (human)): 94.4%; residual activity (TGFBR1 (human)): 97%; residual activity (GSG2 (human)): 97.7%; residual activity (MAP3K9 (human)): 105%; residual activity (EPHB1 (human)): 103%; residual activity (MAPK8 (human)): 91.9%; residual activity (CDK4 CCND3 (human)): 107%; residual activity (MARK1 (human)): 103%; residual activity (PAK6 (human)): 94.9%; residual activity (INSR (human)): 97%; residual activity (HIPK4 (human)): 97.7%; residual activity (MAP3K8 (human)): 98.4%; residual activity (JAK3 JH1 JH2 (human)): 95.9%; residual activity (PKN1 (human)): 101%; residual activity (SGK3 (human)): 105%; residual activity (MELK (human)): 102%; residual activity (CDK5 CDK5R1 p25 (human)): 103%; residual activity (BRAF (human)): 99%
c1ccc(-c2n[nH]cc2-c2ccnc3ccccc23)nc1 | 100% | 44.2% | 91.2% | 90.6% | 93.4% | 87.5% | 102% | 95.4% | 95.6% | 90.1% | 87.9% | 93.7% | 97.1% | 103% | 95.5% | 79.4% | 117% | 103% | 98.3% | 102% | residual activity (CSNK1G3 (human)): 96%; residual activity (CDK2 CCNE1 (human)): 91.3%; residual activity (TGFBR1 (human)): 41.6%; residual activity (GSG2 (human)): 90.8%; residual activity (MAP3K9 (human)): 90.4%; residual activity (EPHB1 (human)): 98.7%; residual activity (CDK4 CCND3 (human)): 102%; residual activity (MARK1 (human)): 79.2%; residual activity (PAK6 (human)): 106%; residual activity (INSR (human)): 86.7%; residual activity (HIPK4 (human)): 89.9%; residual activity (MAP3K8 (human)): 91.1%; residual activity (JAK3 JH1 JH2 (human)): 92.7%; residual activity (PKN1 (human)): 100%; residual activity (SGK3 (human)): 97.4%; residual activity (MELK (human)): 93.3%; residual activity (CSK (human)): 102%; residual activity (CDK5 CDK5R1 p25 (human)): 97.2%; residual activity (BRAF (human)): 95.7%
Cc1ccc(NC2=CC(=O)c3sc(C)nc3C2=O)cc1 | 90.7% | 101% | 72.5% | 108% | 89.1% | 95.1% | 101% | 110% | 96.9% | 95% | 88.3% | 102% | 77.4% | 100% | 93% | 120% | 93.7% | 104% | 76.1% | 98.6% | residual activity (CDC42BPA (human)): 77.6%; residual activity (CSNK1G3 (human)): 90.1%; residual activity (CDK2 CCNE1 (human)): 72.9%; residual activity (TGFBR1 (human)): 94.8%; residual activity (GSG2 (human)): 86.6%; residual activity (MAP3K9 (human)): 86.7%; residual activity (MAPK8 (human)): 100%; residual activity (CDK4 CCND3 (human)): 93.7%; residual activity (MARK1 (human)): 89.6%; residual activity (PAK6 (human)): 110%; residual activity (INSR (human)): 92.6%; residual activity (HIPK4 (human)): 93.7%; residual activity (MAP3K8 (human)): 90.2%; residual activity (JAK3 JH1 JH2 (human)): 97.4%; residual activity (PKN1 (human)): 98.9%; residual activity (SGK3 (human)): 95.2%; residual activity (MELK (human)): 93.2%; residual activity (CSK (human)): 102%; residual activity (CDK5 CDK5R1 p25 (human)): 61.9%; residual activity (BRAF (human)): 96.7%
Nc1ncnc2[nH]nc(Nc3ccc(F)cc3)c12 | 96% | 67.7% | 78.3% | 95% | 93.9% | 92.5% | 105% | 92.3% | 110% | 70.5% | 95.6% | 89.6% | 116% | 91.6% | 95.5% | 87.6% | 88.1% | 95.2% | 109% | 93.9% | residual activity (CDC42BPA (human)): 103%; residual activity (CSNK1G3 (human)): 97.9%; residual activity (CDK2 CCNE1 (human)): 90.3%; residual activity (GSG2 (human)): 87.7%; residual activity (MAP3K9 (human)): 100%; residual activity (MAPK8 (human)): 111%; residual activity (CDK4 CCND3 (human)): 111%; residual activity (MARK1 (human)): 93.8%; residual activity (PAK6 (human)): 109%; residual activity (INSR (human)): 98.5%; residual activity (HIPK4 (human)): 98.5%; residual activity (MAP3K8 (human)): 99.7%; residual activity (JAK3 JH1 JH2 (human)): 102%; residual activity (PKN1 (human)): 102%; residual activity (SGK3 (human)): 102%; residual activity (MELK (human)): 97.7%; residual activity (CSK (human)): 80.2%; residual activity (CDK5 CDK5R1 p25 (human)): 82.5%; residual activity (BRAF (human)): 91.7%
CCN(CC)CCNC(=O)c1c(C)[nH]c(/C=C2\C(=O)Nc3ccc(F)cc32)c1C | 72.8% | 31.8% | 2.71% | 56.8% | 51.3% | 30.4% | 14.5% | 59.7% | 40.3% | 31.2% | 88.8% | 3.34% | 81.6% | 72.1% | 2.75% | 42% | 26.7% | 94.3% | 111% | 64.3% | residual activity (CDC42BPA (human)): 89.5%; residual activity (TGFBR1 (human)): 101%; residual activity (GSG2 (human)): 53.2%; residual activity (EPHB1 (human)): 53.6%; residual activity (MAPK8 (human)): 91.8%; residual activity (CDK4 CCND3 (human)): 93%; residual activity (MARK1 (human)): 40.9%; residual activity (PAK6 (human)): 107%; residual activity (HIPK4 (human)): 74.7%; residual activity (MAP3K8 (human)): 117%; residual activity (JAK3 JH1 JH2 (human)): 80.7%; residual activity (PKN1 (human)): 71.4%; residual activity (SGK3 (human)): 101%; residual activity (MELK (human)): 10.4%; residual activity (CSK (human)): 90.2%; residual activity (BRAF (human)): 106%
